# Test results reported in patent US5792622A, “Assay for chemicals” (priority 1995, dated 1998).
# Entries after “also recorded” stand apart in the source; their conditions may differ. Like-named read-outs stand apart in the source and are kept apart here.
# Assays:
# R. meliloti [1] = test: microbe, parasite or virus in culture; type: cell-based; settings: for absorbance at which the reduction stopped: A550, FIGS. 3 and 5
# [2] = cited from earlier work; for Microtox IC50: Table 8
# fish (trout fingerlings) = settings: Table 8, trout fingerlings; cited from earlier work
# Rhodobacter sphaeroides = test: Inhibition of tetrazolium dye reduction by Rhodobacter sphaeroides; type: cell-based
# Experimental: The other strains of bacteria, mixed in a buffer with various toxic chemicals, which were tested with the tetrazolium dye, gave varying results. Some bacteria reduced the dye, but the reduction was not inhibited appreciably by toxic chemicals. The absorbance of tetrazolium by Rhodobacter sphaeroides was not inhibited by copper. E. coli reduced the dye, but reduction was not inhibited by xylene. […] FIG. 1 is a graph showing data comparing the absorbance of the bacteria R. meliloti and E. coli at A590 varying between 0.0 and 0.3 in reacting with different toxins.
# R. meliloti [3] = type: cell-based
# R. leguminosarum = type: cell-based
# B. japonicum = type: cell-based
# R. sphaeroides = type: cell-based
# Ps fluorescens = type: cell-based
# B. megaterium = type: cell-based
# A. crystallopoites = type: cell-based
# S. lactis = type: cell-based
# E. coli = type: cell-based
# S. typhimurium = type: cell-based
# [4] = Sinorhizobium meliloti, read-out: IC50 ppm
# [5] = Sinorhizobium meliloti, read-out: Rhizobium/Tetrazolium ppm
# [6] = Sinorhizobium meliloti, read-out: Rhizobium/Tetrazolium IC50
# [7] = ratio of the inhibitory concentrations
# [8] = read-out: toxic concentration in mM equivalent to ppm of Table 7
# [9] = rhizobium meliloti mtt reduction
# [10] = Sinorhizobium meliloti, Table 4, organic compounds, read-out: average (ppm), concentration giving 50% inhibition of dye reduction
# [11] = Sinorhizobium meliloti, Table 9, read-out: Rhizobium/Tetrazolium ppm
compound,measurement,setting,value
CC(C)=O [Acetone],IC50,R. meliloti [1]; [4],71600 µg/mL
same,IC50,R. meliloti [1]; [5],1640 µg/mL
same,Microtox ppm,[2]; microtox bioluminescence,"13305-29,109"
c1ccccc1 [Benzene],sensitivity of Rhizobium/Tetrazolium assay compared with Microtox assay,R. meliloti [1],at least an order of magnitude more sensitive than the Rhizobium/Tetrazolium assay
same,IC50,R. meliloti [1]; [6],712 µg/mL
same,IC50,R. meliloti [1]; [5],712 to 2100 µg/mL
[Cd] [Cadmium],Fish LD50 (50% death of the fish),fish (trout fingerlings),1.0-100 ppm
same,ppm (50% inhibition of dye reduction),"R. meliloti [1]; Table 7, minerals",0.838 ppm
same,Rhizobium/Tetrazolium IC50,R. meliloti [1]; Table 8,0.210 ppm
same,sensitivity of Rhizobium/Tetrazolium assay compared with Microtox assay,R. meliloti [1]; [7],at least an order of magnitude more sensitive for 4 compounds
same,Microtox IC50,[2],416 ppm
"[Ca+2].[Cl-].[Cl-] [Calcium, calcium chloride]",effect on the reaction,"R. meliloti [1]; 19 ppm, with 500 μl of 5 mM EDTA (0.758 mM EDTA)",does not affect the reaction
same,ppm (50% inhibition of dye reduction),"R. meliloti [1]; Table 7, minerals",5.230 ppm
same,level at which toxic,R. meliloti [1]; in the absence of a counteracting substance,6 ppm
same,IC50,R. meliloti [1]; [8],0.0471 mM
ClC(Cl)Cl [Chloroform],IC50 (amount per tube),R. meliloti [1],6.10 mg/tube
same,IC50 volume,R. meliloti [1],827 µL
same,IC50,R. meliloti [1]; [9],4132 ppm
same,"average (ppm), concentration giving 50% inhibition of dye reduction",R. meliloti [1]; [9],2032
[Co] [Cobalt],ppm (50% inhibition of dye reduction),"R. meliloti [1]; Table 7, minerals",11.200 ppm
[Cu] [Copper],Fish LD50 (50% death of the fish),fish (trout fingerlings),0.1-10.7 ppm
same,inhibition of absorbance of tetrazolium,Rhodobacter sphaeroides,not inhibited
same,effect on the reduction of the dye at very low concentrations,R. meliloti [1]; FIG. 10,stimulates the reduction of the dye at very low concentrations
same,ppm (50% inhibition of dye reduction),"R. meliloti [1]; Table 7, minerals",0.960 ppm
same,Rhizobium/Tetrazolium IC50,R. meliloti [1]; Table 8,0.240 ppm
same,sensitivity of Rhizobium/Tetrazolium assay compared with Microtox assay,R. meliloti [1]; [7],at least an order of magnitude more sensitive for 4 compounds
same,Microtox IC50,[2],24.96 ppm
"O=C1C(Cl)=CC(=Nc2ccc(O)cc2)C=C1Cl [DCIP, 2,6-dichlorophenol-indophenol]",rate of reduction of the dye,R. meliloti [3],reduced very slowly
"C[S+](C)[O-] [DMSO, dimethyl sulfoxide]",IC50,R. meliloti [1],203.3 μl/tube
same,Microtox ppm,[2]; microtox bioluminescence,"3,506-102,995"
"O=[N+]([O-])c1ccc(O)c([N+](=O)[O-])c1 [Dinitrophenol, dinitrophenol]",absorbance at which the reduction stopped,R. meliloti [1],0.2
same,IC50,R. meliloti [1]; [10],574 µg/mL
CCO [Ethanol],IC50,R. meliloti [1]; [4],75600 µg/mL
same,Microtox ppm,[2]; microtox bioluminescence,"23,090-55,388"
"O=[N+]([O-])c1ccc(-[n+]2nc(-c3ccccc3)nn2-c2ccc(I)cc2)cc1 [INT, 2-(4-iodophenyl)-3-(4-nitrophenyl)-5-phenyltetrazolium chloride]",absorbance of reduced dye,"R. leguminosarum; Table 1, incubation 7:48 hrs",0.02
same,absorbance of reduced dye,"B. japonicum; Table 1, incubation 7:48 hrs",0.44
same,absorbance of reduced dye,"R. sphaeroides; Table 1, incubation 11:25 hrs",0.95
same,absorbance of reduced dye,"Ps fluorescens; Table 1, incubation 1:57 hrs",0.17
same,absorbance of reduced dye,"B. megaterium; Table 1, incubation 2:00 hrs",0.16
same,absorbance of reduced dye,"A. crystallopoites; Table 1, incubation 2:00 hrs",0.14
same,absorbance of reduced dye,"S. lactis; Table 1, incubation 9:57 hrs",0.08
same,absorbance of reduced dye,"R. meliloti [3]; Table 1, incubation 2:00 hrs",0.48
same,absorbance of reduced dye,"E. coli; Table 1, incubation 1:40 hrs",0.12
same,absorbance of reduced dye,"S. typhimurium; Table 1, incubation 2:00 hrs",0.06
[Pb] [Lead],inhibitory effect on the reduction of tetrazolium dye,R. meliloti [1],no inhibitory effect
"O=S(=O)([O-])[O-].[Mg+2] [Magnesium, Magnesium sulfate]",ppm (50% inhibition of dye reduction),"R. meliloti [1]; Table 7, minerals",59.900 ppm
same,IC50,R. meliloti [1]; [8],0.243 mM
[Mn+2] [Manganese],ppm (50% inhibition of dye reduction),R. meliloti [1]; [9],0.892
CO [Methanol],IC50,"R. meliloti [1]; Sinorhizobium meliloti, Table 6, solvents, read-out: IC50 ppm",76500 µg/mL
same,IC50,R. meliloti [1]; [11],68400 µg/mL
same,Microtox ppm,[2]; Table 9,"11,368-320400 ppm"
"COc1cc(-c2ccc(-n3nc(-c4ccccc4)n[n+]3-c3ccc([N+](=O)[O-])cc3)c(OC)c2)ccc1-n1nc(-c2ccccc2)n[n+]1-c1ccc([N+](=O)[O-])cc1 [NBT, 2,2'-di-nitrophenyl-5,5'-diphenyl-3,3'(-3,3'-dimethoxy-4,4'-diphenylene)ditetrazolium chloride]",absorbance of reduced dye,"R. leguminosarum; Table 1, incubation 7:48 hrs",0
same,absorbance of reduced dye,"B. japonicum; Table 1, incubation 7:48 hrs",0.01
same,absorbance of reduced dye,"R. sphaeroides; Table 1, incubation 11:25 hrs",0.16
same,absorbance of reduced dye,"Ps fluorescens; Table 1, incubation 1:57 hrs",0.04
same,absorbance of reduced dye,"B. megaterium; Table 1, incubation 2:00 hrs",0.19
same,absorbance of reduced dye,"A. crystallopoites; Table 1, incubation 2:00 hrs",0.27
same,absorbance of reduced dye,"S. lactis; Table 1, incubation 9:57 hrs",0.06
same,absorbance of reduced dye,"R. meliloti [3]; Table 1, incubation 2:00 hrs",0.16
same,absorbance of reduced dye,"E. coli; Table 1, incubation 1:40 hrs",0.1
same,absorbance of reduced dye,"S. typhimurium; Table 1, incubation 2:00 hrs",0.24
"[Cl-].[Na+] [NaCl, sodium chloride]",IC50,"R. meliloti [1]; FIG. 12, 10% NaCl solution","60,689 ppm"
same,IC50 volume,"R. meliloti [1]; FIG. 12, 10% NaCl solution, 590 nm",606.89 µL
same,absorbance reached,"R. meliloti [1]; at 1000 μl of 10% NaCl solution, 590 nm",0.1
[Ni] [Nickel],Rhizobium/Tetrazolium ppm,R. meliloti [1]; [9],49.3
same,Microtox ppm,[2]; microtox bioluminescence,34
"Oc1c(Cl)c(Cl)c(Cl)c(Cl)c1Cl [Pentachlorophenol, pentachlorophenol]",inhibition compared with trichlorophenol,R. meliloti [1],an order of magnitude greater
same,absorbance at which the reduction stopped,R. meliloti [1],≤ 0.25
same,IC50,R. meliloti [1]; [10],0.206 µg/mL
same,IC50,"R. meliloti [1]; Sinorhizobium meliloti, Table 8, read-out: Rhizobium/Tetrazolium IC50",0.143 µg/mL
same,sensitivity of Rhizobium/Tetrazolium assay compared with Microtox assay,R. meliloti [1]; [7],at least an order of magnitude more sensitive for 4 compounds; also recorded: two orders of magnitude more sensitive
same,Microtox IC50,[2],2.46-2.71 ppm
same,Microtox ppm,[2]; Table 9,2.46-2.71 ppm
Oc1ccccc1 [Phenol],Fish LD50 (50% death of the fish),fish (trout fingerlings),50-100 ppm
same,sensitivity of Rhizobium/Tetrazolium assay compared with Microtox assay,R. meliloti [1],at least an order of magnitude more sensitive than the Rhizobium/Tetrazolium assay
same,IC50,R. meliloti [1]; [6],1220 µg/mL
same,IC50,"R. meliloti [1]; Sinorhizobium meliloti, read-out: average (ppm), concentration giving 50% inhibition of dye reduction",1320 µg/mL
same,Microtox ppm,[2]; microtox bioluminescence,623
"O=c1ccc2[n+]([O-])c3ccc(O)cc3oc-2c1 [Resazurin, resazurin]",usefulness of dye reduction by E. coli,E. coli; protocol used with the tetrazolium dyes,did not yield useful results
[Se] [Selenium],IC50,"R. meliloti [1]; Sinorhizobium meliloti, Table 7, minerals, read-out: ppm (50% inhibition of dye reduction)",226 µg/mL
CCCCCCCCCCCCOS(=O)(=O)[O-].[Na+] [Sodium lauryl sulfate],IC50,R. meliloti [1]; [10],30.4 µg/mL
same,IC50,R. meliloti [1]; [11],31 µg/mL
same,sensitivity of Rhizobium/Tetrazolium assay compared with Microtox assay,R. meliloti [1]; [7],at least an order of magnitude more sensitive than the Rhizobium/Tetrazolium assay
"COc1cc(-c2ccc(-n3nc(-c4ccccc4)n[n+]3-c3ccccc3)c(OC)c2)ccc1-n1nc(-c2ccccc2)n[n+]1-c1ccccc1 [TB, 3,3'-[3,3'-dimethoxy(1,1'-biphenyl)-4,4'-diyl]-bis(2,5-diphenyl-2H-tetrazolium)dichloride]",absorbance of reduced dye,"R. leguminosarum; Table 1, incubation 7:48 hrs",0
same,absorbance of reduced dye,"B. japonicum; Table 1, incubation 7:48 hrs",0.02
same,absorbance of reduced dye,"Ps fluorescens; Table 1, incubation 1:57 hrs",0.05
same,absorbance of reduced dye,"B. megaterium; Table 1, incubation 2:00 hrs",0.17
same,absorbance of reduced dye,"A. crystallopoites; Table 1, incubation 2:00 hrs",0.22
same,absorbance of reduced dye,"S. lactis; Table 1, incubation 9:57 hrs",0.04
same,absorbance of reduced dye,"R. meliloti [3]; Table 1, incubation 2:00 hrs",0.12
same,absorbance of reduced dye,"E. coli; Table 1, incubation 1:40 hrs",0.04
same,absorbance of reduced dye,"S. typhimurium; Table 1, incubation 2:00 hrs",0.22
"c1ccc(-c2nn(-c3ccccc3)[n+](-c3ccccc3)n2)cc1 [TTC, 2,3,5-triphenyltetrazolium chloride]",absorbance of reduced dye,R. leguminosarum,0
same,absorbance of reduced dye,B. japonicum,0.07
same,absorbance of reduced dye,R. sphaeroides,0.12
same,absorbance of reduced dye,Ps fluorescens,0.01
same,absorbance of reduced dye,B. megaterium,0.1
same,absorbance of reduced dye,A. crystallopoites,0.09
same,absorbance of reduced dye,S. lactis,0.05
same,absorbance of reduced dye,R. meliloti [3],0.09
same,absorbance of reduced dye,E. coli,0.14
same,absorbance of reduced dye,S. typhimurium,0.04
"c1ccc(-c2nn(-c3ccccc3)[n+](-c3cccc4ccccc34)n2)cc1 [TV, 2,5-diphenyl-3-(α-napthyl)tetrazolium chloride]",absorbance of reduced dye,"R. leguminosarum; Table 1, incubation 7:48 hrs",0
same,absorbance of reduced dye,"B. japonicum; Table 1, incubation 7:48 hrs",0.14
same,absorbance of reduced dye,"R. sphaeroides; Table 1, incubation 11:25 hrs",0.12
same,absorbance of reduced dye,"Ps fluorescens; Table 1, incubation 1:57 hrs",0.01
same,absorbance of reduced dye,"B. megaterium; Table 1, incubation 2:00 hrs",0.07
same,absorbance of reduced dye,"A. crystallopoites; Table 1, incubation 2:00 hrs",0.08
same,absorbance of reduced dye,"S. lactis; Table 1, incubation 9:57 hrs",0.04
same,absorbance of reduced dye,"R. meliloti [3]; Table 1, incubation 2:00 hrs",0.08
same,rate of reduction of the dye,R. meliloti [3]; in words,reduced more slowly than MTT
same,absorbance of reduced dye,"E. coli; Table 1, incubation 1:40 hrs",0.03
same,absorbance of reduced dye,"S. typhimurium; Table 1, incubation 2:00 hrs",0.04
Cc1ccccc1 [Toluene],Fish LD50 (50% death of the fish),fish (trout fingerlings),23 ppm
same,IC50,R. meliloti [1]; [6],590 µg/mL
same,IC50,R. meliloti [1]; [5],30 to 502 µg/mL
same,sensitivity of Rhizobium/Tetrazolium assay compared with Microtox assay,R. meliloti [1]; [7],at least an order of magnitude more sensitive than the Rhizobium/Tetrazolium assay
same,Microtox IC50,[2],"33,833 ppm"
same,Microtox ppm,[2]; Table 9,"18.0-33,833 ppm"
[Zn] [Zinc],Fish LD50 (50% death of the fish),fish (trout fingerlings),0.24-7.20 ppm
same,ppm (50% inhibition of dye reduction),"R. meliloti [1]; Table 7, minerals",4.750 ppm
same,sensitivity of Rhizobium/Tetrazolium assay compared with Microtox assay,R. meliloti [1]; [7],at least an order of magnitude more sensitive for 4 compounds
same,Microtox IC50,[2],476 ppm
[Fe] [iron],inhibitory effect on the reduction of tetrazolium dye,R. meliloti [1],no inhibitory effect
O=C1NS(=O)(=O)c2ccccc21 [saccharin],absorbance to which the reduction would eventually go,R. meliloti [1],0.0
same,IC50,R. meliloti [1]; Sinorhizobium meliloti,477 µg/mL
ClC(Cl)=C(Cl)Cl [tetrachloroethylene],IC50,R. meliloti [1]; [10],34.8 µg/mL
ClC=C(Cl)Cl [trichloroethylene],IC50,R. meliloti [1]; [10],59.5 µg/mL
Mercury,inhibition of tetrazolium reduction,R. meliloti [1],inhibited tetrazolium reduction completely
same,ppm (50% inhibition of dye reduction),R. meliloti [1]; [9],0.0179
same,Microtox ppm,[2]; microtox bioluminescence,0.06
